Experimental data published in patent publication US8399480B2, “Hydroxymethyl pyrrolidines as beta 3 adrenergic receptor agonists” (Merck Sharp & Dohme Corp., priority 2008, dated 2013).
Like-named read-outs stand apart in the source and are kept apart here. One block for each molecule: values may come before it.

Biological target: T1, human β3 adrenergic receptor (Homo sapiens, UniProt P13945)
T1 construct: expressed in transfected cells; host or cells: Chinese hamster ovary (CHO) cells, stably transfected
Experiment: Functional assay: cAMP production (LANCE TR-FRET) in CHO cells stably transfected with cloned β3 adrenergic receptor
Type: cell-based
Procedure: Chinese hamster ovary (CHO) cells, stably transfected with the cloned β-adrenergic receptor (β1, β2 or β3) are harvested after 3 days of subculturing. Harvesting of cells is done with Enzyme-free Dissociation Media (Specialty Media). Cells are then counted and resuspended in assay buffer (Hank's Balanced salt solution supplemented with 5 mM HEPES, 0.1% BSA) containing a phosphodiesterase inhibitor (IBMX, 0.6 mM). The reaction is initiated by mixing 6,000 cells in 6 μL with 6 μL Alexa Fluor labeled cAMP antibody (LANCE™ kit) which is then added to an assay well containing 12 μL of compound (diluted in assay buffer to 2× final concentration). The reaction proceeds for 30 min at room temperature and is terminated by the addition of 24 μL detection buffer (LANCE™ kit). The assay plate is then incubated for 1 h at room temperature and time-resolved fluorescence measured on a Perkin Elmer Envision reader or equivalent. The unknown cAMP level is determined by comparing fluorescence levels to a cAMP standard curve.
The non-selective, full agonist β-adrenergic ligand isoproterenol is used at all three receptors to determine maximal stimulation. […] Data are analyzed using Microsoft Excel and Graphpad Prism or an internally developed data analysis software package.

[1] = Table 4, human β3 functional activity, read-out: Human β Binding
[2] = Table 5, read-out: Human β3 Functional
[3] = Table 9, read-out: Human β^3 Functional
[4] = Table 7, β3AR-cAMP, read-out: Human β3 Functional
[5] = Table 10, β3AR-cAMP, read-out: Human β3 Functional
[6] = human β3 functional activity, shown as ranges, Table 13, read-out: Human β3 Functional
[7] = Table 8, read-out: Human β3 Functional
[8] = Table 6, read-out: Human β3 Functional
[9] = Table 11, read-out: Human β3 Functional

T1 sequence (P13945 whole entry): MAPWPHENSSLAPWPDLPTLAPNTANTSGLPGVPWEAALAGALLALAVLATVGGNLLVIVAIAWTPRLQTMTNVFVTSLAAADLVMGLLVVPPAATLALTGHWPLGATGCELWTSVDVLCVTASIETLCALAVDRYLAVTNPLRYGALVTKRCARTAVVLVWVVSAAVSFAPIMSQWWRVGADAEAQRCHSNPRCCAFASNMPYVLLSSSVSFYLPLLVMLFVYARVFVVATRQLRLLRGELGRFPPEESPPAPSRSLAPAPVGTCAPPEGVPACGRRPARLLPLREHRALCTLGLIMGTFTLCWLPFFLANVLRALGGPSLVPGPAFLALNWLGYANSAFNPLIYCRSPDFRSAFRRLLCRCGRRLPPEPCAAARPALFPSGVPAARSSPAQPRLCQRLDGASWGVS

Structure (SMILES): O=C(Cn1c(=O)[nH]c2ccccc2c1=O)Nc1ccc(C[C@@H]2CC[C@H]([C@H](O)c3ccccc3)N2)cc1 [Example 50]
EC50 [1]: < 1 nM

Structure (SMILES): O=C(Nc1ccc(C[C@@H]2CC[C@H]([C@H](O)c3ccccc3)N2)cc1)C1CCc2ccccc2C1 (single isomer, unassigned) [Example 108]
EC50 [2]: 101 to 1000 nM

Structure (SMILES): O=C(Cc1nnc(-c2cscn2)[nH]1)Nc1ccc(C[C@@H]2CC[C@H]([C@H](O)c3ccccc3)N2)cc1 [Example 24]
EC50 [1]: 1 to 10 nM

Structure (SMILES): O=C(Nc1ccc(C[C@@H]2CC[C@H]([C@H](O)c3ccccc3)N2)cc1)C1CCCc2ccnn21 (single isomer, unassigned) [Example 156]
EC50 [2]: 1 to 10 nM

Structure (SMILES): O=C(CCc1nc(-c2ccccc2)no1)Nc1ccc(C[C@@H]2CC[C@H]([C@H](O)c3ccccc3)N2)cc1 [Example 47]
EC50 [1]: 1 to 10 nM

Structure (SMILES): CC(C(=O)Nc1ccc(C[C@@H]2CC[C@H]([C@H](O)c3ccccc3)N2)cc1)n1cccn1 (single isomer, unassigned) [Example 181]
EC50 [2]: 1 to 10 nM

Structure (SMILES): CC1=NN(CC(=O)Nc2ccc(C[C@@H]3CC[C@H]([C@H](O)c4ccccc4)N3)cc2)C(=O)C1 [Example 83]
EC50 [1]: 11 to 100 nM

Structure (SMILES): O=C(Nc1ccc(C[C@@H]2CC[C@H]([C@H](O)c3ccccc3)N2)cc1)C1CCc2cn[nH]c21 (single isomer, unassigned) [Example 137]
EC50 [2]: 11 to 100 nM

Structure (SMILES): O=C(Cc1nnc(-c2ccc(Cl)cc2)[nH]1)Nc1ccc(C[C@@H]2CC[C@H]([C@H](O)c3ccccc3)N2)cc1 [Example 23]
EC50 [1]: 11 to 100 nM

Structure (SMILES): Cc1ccc(OCC(=O)Nc2ccc(C[C@@H]3CC[C@H]([C@H](O)c4ccccc4)N3)cc2)nn1 [Example 95]
EC50 [1]: 11 to 100 nM

Structure (SMILES): Cc1nnc(CC(=O)Nc2ccc(C[C@@H]3CC[C@H]([C@H](O)c4ccccc4)N3)cc2)[nH]1 [Example 21]
EC50 [1]: 11 to 100 nM

Structure (SMILES): O=C(Cc1nnc(-c2cc(Cl)cc(Cl)c2)[nH]1)Nc1ccc(C[C@@H]2CC[C@H]([C@H](O)c3ccccc3)N2)cc1 [Example 26]
EC50 [1]: 101 to 1000 nM

Structure (SMILES): Cc1nonc1CC(=O)Nc1ccc(C[C@@H]2CC[C@H]([C@H](O)c3ccccc3)N2)cc1 [Example 82]
EC50 [1]: 1 to 10 nM

Structure (SMILES): O=C(Nc1ccc(C[C@@H]2CC[C@H]([C@H](O)c3ccccc3)N2)cc1)c1ccccc1CCc1ccccc1 [Example 30]
EC50 [1]: 101 to 1000 nM

Structure (SMILES): O=C(Nc1ccc(C[C@@H]2CC[C@H]([C@H](O)c3ccccc3)N2)cc1)C1CCc2sc(F)nc21 (single isomer, unassigned) [Example 147]
EC50 [2]: < 1 nM

Structure (SMILES): O=C(Nc1ccc(C[C@@H]2CC[C@H]([C@H](O)c3ccccc3)N2)cc1)c1ccccc1-c1nc2ccccc2s1 [Example 14]
EC50 [1]: 101 to 1000 nM

Structure (SMILES): CC(C(=O)Nc1ccc(C[C@@H]2CC[C@H]([C@H](O)c3ccccc3)N2)cc1)n1ccnn1 (single isomer, unassigned) [Example 182]
EC50 [2]: 11 to 100 nM

Structure (SMILES): Cc1nnc2n1CCCC2C(=O)Nc1ccc(C[C@@H]2CC[C@H]([C@H](O)c3ccccc3)N2)cc1 (single isomer, unassigned) [Example 150]
EC50 [2]: 1 to 10 nM

Structure (SMILES): CC(C(=O)Nc1ccc(C[C@@H]2CC[C@H]([C@H](O)c3ccccc3)N2)cc1)n1cc(C(=O)O)nn1 (single isomer, unassigned) [Example 190]
EC50 [2]: 11 to 100 nM

Structure (SMILES): CC(C(=O)Nc1ccc(C[C@@H]2CC[C@H]([C@H](O)c3ccccc3)N2)cc1)n1cncn1 (single isomer, unassigned) [Example 176]
EC50 [2]: 1 to 10 nM

Structure (SMILES): O=C(Cn1nnnc1-c1ccc(F)cc1)Nc1ccc(C[C@@H]2CC[C@H]([C@H](O)c3ccccc3)N2)cc1 [Example 29]
EC50 [1]: 11 to 100 nM

Structure (SMILES): CC(C(=O)Nc1ccc(C[C@@H]2CC[C@H]([C@H](O)c3ccccc3)N2)cc1)n1nccn1 (single isomer, unassigned) [Example 179]
EC50 [2]: 1 to 10 nM

Structure (SMILES): O=C(Nc1ccc(C[C@@H]2CC[C@H]([C@H](O)c3ccccc3)N2)cc1)C1CCCN1c1cc(Cl)cc(Cl)c1 (stereo partly shown) [Example 35]
EC50 [1]: 11 to 100 nM

Structure (SMILES): O=C(Nc1ccc(C[C@@H]2CC[C@H]([C@H](O)c3ccccc3)N2)cc1)c1ccccc1N1CCCC1 [Example 7]
EC50 [1]: 101 to 1000 nM

Structure (SMILES): O=C(Cc1n[nH]c(=O)[nH]1)Nc1ccc(C[C@@H]2CC[C@H]([C@H](O)c3ccccc3)N2)cc1 [Example 68]
EC50 [1]: 11 to 100 nM

More lines, now with the values ahead:

EC50 [3]: < 1 nM
Structure (SMILES): CC(NC(=O)c1ccccc1)C(=O)Nc1ccc(C[C@@H]2CC[C@H]([C@H](O)c3ccccc3)N2)cc1 (stereo partly shown) [Example 272]

EC50 [4]: 11 to 100 nM
Structure (SMILES): O=S(=O)(Nc1ccc(C[C@@H]2CC[C@H]([C@H](O)c3ccccc3)N2)cc1)c1ccc2ncsc2c1 [Example 239]

EC50 [3]: 11 to 100 nM
Structure (SMILES): CC(N)C(=O)Nc1ccc(C[C@@H]2CC[C@H]([C@H](O)c3ccccc3)N2)cc1 (stereo partly shown) [Example 270]

EC50 [4]: 101 to 1000 nM
Structure (SMILES): Cc1nccc(-c2cccc(S(=O)(=O)Nc3ccc(C[C@@H]4CC[C@H]([C@H](O)c5ccccc5)N4)cc3)c2)n1 [Example 243]

EC50 [2]: 11 to 100 nM
Structure (SMILES): CC(C(=O)Nc1ccc(C[C@@H]2CC[C@H]([C@H](O)c3ccccc3)N2)cc1)n1cc(C(=O)O)nn1 (single isomer, unassigned) [Example 191]

EC50 [5]: < 1 nM
Structure (SMILES): O=C(Nc1ccc(CC2CCC(C(O)c3cccc(F)c3)N2)cc1)C1CCc2scnc21 (stereo not shown) [Example 279]

EC50 [6]: 11 to 100 nM
Structure (SMILES): O=C(Nc1ccc(CC2CCC(C(O)c3cccc(Cl)c3)N2)cc1)C1CCc2sc(F)nc21 (single isomer, unassigned) [Example 301]

EC50 (Table 12, read-out: Human β3 Functional): < 1 nM
Structure (SMILES): Nc1nc2c(s1)CCC2C(=O)Nc1ccc(CC2CCC(C(O)c3ccc(F)c(F)c3)N2)cc1 (single isomer, unassigned) [Example 289]

EC50 [5]: 1 to 10 nM
Structure (SMILES): O=C(Cn1ncccc1=O)Nc1ccc(C[C@@H]2CC[C@H]([C@H](O)c3cccc(F)c3)N2)cc1 [Example 281]

EC50 [4]: 101 to 1000 nM
Structure (SMILES): O=S(=O)(Nc1ccc(C[C@@H]2CC[C@H]([C@H](O)c3ccccc3)N2)cc1)c1cccc2cccnc12 [Example 237]

EC50 [4]: 101 to 1000 nM
Structure (SMILES): O=S(=O)(Cc1ccccn1)Nc1ccc(C[C@@H]2CC[C@H]([C@H](O)c3ccccc3)N2)cc1 [Example 248]

EC50 [2]: 11 to 100 nM
Structure (SMILES): CC(C(=O)Nc1ccc(C[C@@H]2CC[C@H]([C@H](O)c3ccccc3)N2)cc1)n1cc(C(N)=O)nn1 (single isomer, unassigned) [Example 193]

EC50 [2]: 1 to 10 nM
Structure (SMILES): CCC(C(=O)Nc1ccc(C[C@@H]2CC[C@H]([C@H](O)c3ccccc3)N2)cc1)n1nccn1 (single isomer, unassigned) [Example 216]

EC50 [7]: 101 to 1000 nM
Structure (SMILES): O=C(NCc1ccccc1F)Nc1ccc(C[C@@H]2CC[C@H]([C@H](O)c3ccccc3)N2)cc1 [Example 254]

EC50 (human β3 functional activity, shown as ranges, Table 14, read-out: Human β3 Functional): < 1 nM
Structure (SMILES): Nc1nc2c(s1)CCC2C(=O)Nc1ccc(CC2CCC(C(O)c3cccc(F)c3)N2)cc1 (single isomer, unassigned) [Example 306]

EC50 [4]: 1000 to 3000 nM
Structure (SMILES): Cc1nn(C)c(Cl)c1S(=O)(=O)Nc1ccc(C[C@@H]2CC[C@H]([C@H](O)c3ccccc3)N2)cc1 [Example 247]

EC50 [2]: 1 to 10 nM
Structure (SMILES): CCC(C(=O)Nc1ccc(C[C@@H]2CC[C@H]([C@H](O)c3ccccc3)N2)cc1)n1nccn1 (single isomer, unassigned) [Example 217]

EC50 [3]: 101 to 1000 nM
Structure (SMILES): CC(C(=O)Nc1ccc(C[C@@H]2CC[C@H]([C@H](O)c3ccccc3)N2)cc1)N(C)C(=O)c1ccccn1 (stereo partly shown) [Example 265]

EC50 [3]: < 1 nM
Structure (SMILES): CC(NC(=O)c1ncccn1)C(=O)Nc1ccc(C[C@@H]2CC[C@H]([C@H](O)c3ccccc3)N2)cc1 (stereo partly shown) [Example 268]

EC50 [5]: 11 to 100 nM
Structure (SMILES): Nc1nc2c(s1)CCC2C(=O)Nc1ccc(CC2CCC(C(O)c3cccc(F)c3)N2)cc1 (single isomer, unassigned) [Example 276]

EC50 [2]: 1 to 10 nM
Structure (SMILES): CC(C(=O)Nc1ccc(C[C@@H]2CC[C@H]([C@H](O)c3ccccc3)N2)cc1)c1ccccn1 (single isomer, unassigned) [Example 204]

EC50 [8]: 1000 to 3000 nM
Structure (SMILES): Nc1nc2c(s1)CCCC2C(=O)Nc1ccc(CC2CCC(C(O)c3ccccc3)N2)cc1 (single isomer, unassigned) [Example 228]

EC50 [2]: 1 to 10 nM
Structure (SMILES): CC(C(=O)Nc1ccc(C[C@@H]2CC[C@H]([C@H](O)c3ccccc3)N2)cc1)n1nncc1C(=O)O (single isomer, unassigned) [Example 196]

EC50 [8]: 101 to 1000 nM
Structure (SMILES): Cc1nc2c(s1)CCCC2C(=O)Nc1ccc(CC2CCC(C(O)c3ccccc3)N2)cc1 (single isomer, unassigned) [Example 231]

EC50 [7]: 101 to 1000 nM
Structure (SMILES): O=C1OC2(CCN(C(=O)Nc3ccc(C[C@@H]4CC[C@H]([C@H](O)c5ccccc5)N4)cc3)CC2)c2cnccc21 [Example 259]

EC50 [9]: < 1 nM
Structure (SMILES): CC(C(=O)Nc1ccc(CC2CCC(C(O)c3ccc(F)cc3)N2)cc1)c1cscn1 (single isomer, unassigned) [Example 286]

EC50 [7]: 101 to 1000 nM
Structure (SMILES): O=C(Nc1ccc(C[C@@H]2CC[C@H]([C@H](O)c3ccccc3)N2)cc1)N1CCC2(CCOC2=O)CC1 [Example 258]

EC50 [2]: 1 to 10 nM
Structure (SMILES): CCC(C(=O)Nc1ccc(C[C@@H]2CC[C@H]([C@H](O)c3ccccc3)N2)cc1)n1cccn1 (single isomer, unassigned) [Example 218]

EC50 [9]: 11 to 100 nM
Structure (SMILES): CC(C(=O)Nc1ccc(CC2CCC(C(O)c3ccc(F)cc3)N2)cc1)c1cscn1 (single isomer, unassigned) [Example 285]

EC50 [6]: < 1 nM
Structure (SMILES): O=C(Nc1ccc(CC2CCC(C(O)c3cccc(Cl)c3)N2)cc1)C1CCc2sc(Br)nc21 (single isomer, unassigned) [Example 298]
